How the values were obtained:
BT-474 Tam1 [1] = assay: relative IC50 (midpoint of fitted logistic curve, plateau may be below 50% inhibition; CellTiter-Glo viability); higher = less potent; conditions: 4-OH-tamoxifen in medium 1 µM; 72 h
Method: (§1)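 FIMM FO2B library drugs were plated at 5 concentrations spanning a 10,000-fold range in 384-well plates. Cells were incubated for 72 h at 37 °C and viability was read by CellTiter-Glo, normalised to DMSO (0% inhibition) and 100 µM benzethonium chloride (100% inhibition). IC50 values come from logistic dose-response fits (Breeze pipeline). Tamoxifen-resistant lines and the 'in 1µM tamoxifen' parental arms were tested in medium with 1 µM 4-OH-tamoxifen.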

T-47D [2] = assay: as above; conditions: 72 h
Method: as §1

MCF-7 [3] = assay: as above; conditions: 72 h
Method: as §1

MCF-7 Tam1 [4] = assay: as above; conditions: 4-OH-tamoxifen in medium 1 µM; 72 h
Method: as §1

ZR-75-1 [5] = assay: as above; conditions: 72 h
Method: as §1

BT-474 [6] = assay: as above; conditions: 72 h
Method: as §1

BT-474 Tam1 [7] = assay: drug sensitivity score (DSS) (DSS (dimensionless)); higher = more sensitive; extreme values may be limits of the assay; conditions: 4-OH-tamoxifen in medium 1 µM; 72 h
Method: (§2)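 FIMM FO2B library drugs were tested at 5 concentrations (10,000-fold range) for 72 h, with CellTiter-Glo viability normalised to DMSO and benzethonium chloride controls. The Drug Sensitivity Score (DSS) is computed from the fitted logistic dose-response curve (area-based; 0 = inactive). Resistant lines and the 'in 1µM tamoxifen' arms were tested in 1 µM 4-OH-tamoxifen.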

ZR-75-1 Tam2 [8] = assay: as above; conditions: 4-OH-tamoxifen in medium 1 µM; 72 h
Method: as §2

BT-474 Tam2 [9] = assay: as above; conditions: 4-OH-tamoxifen in medium 1 µM; 72 h
Method: as §2

T-47D [10] = assay: as above; conditions: 72 h
Method: as §2

MCF-7 [11] = assay: as above; conditions: 72 h
Method: as §2

ZR-75-1 Tam1 [12] = assay: as above; conditions: 4-OH-tamoxifen in medium 1 µM; 72 h
Method: as §2

T-47D Tam2 = assay: as above; conditions: 4-OH-tamoxifen in medium 1 µM; 72 h
Method: as §2

MCF-7 Tam1 [13] = assay: as above; conditions: 4-OH-tamoxifen in medium 1 µM; 72 h
Method: as §2

T-47D Tam1 [14] = assay: as above; conditions: 4-OH-tamoxifen in medium 1 µM; 72 h
Method: as §2

ZR-75-1 [15] = assay: as above; conditions: 72 h
Method: as §2

BT-474 [16] = assay: as above; conditions: 72 h
Method: as §2

ZR-75-1 Tam2 [17] = assay: relative IC50 (midpoint of fitted logistic curve, plateau may be below 50% inhibition; CellTiter-Glo viability); higher = less potent; conditions: 4-OH-tamoxifen in medium 1 µM; 72 h
Method: as §1

ZR-75-1 Tam1 [18] = assay: as above; conditions: 4-OH-tamoxifen in medium 1 µM; 72 h
Method: as §1

T-47D Tam1 [19] = assay: as above; conditions: 4-OH-tamoxifen in medium 1 µM; 72 h
Method: as §1

BT-474 Tam2 [20] = assay: as above; conditions: 4-OH-tamoxifen in medium 1 µM; 72 h
Method: as §1

SMILES	relative IC50 (BT-474 Tam1 [1]) [nM]	relative IC50 (T-47D [2]; 4-OH-tamoxifen in medium 0 µM) [nM]	relative IC50 (MCF-7 [3]; 4-OH-tamoxifen in medium 0 µM) [nM]	relative IC50 (MCF-7 [3]; 4-OH-tamoxifen in medium 1 µM) [nM]	relative IC50 (MCF-7 Tam1 [4]) [nM]	relative IC50 (ZR-75-1 [5]; 4-OH-tamoxifen in medium 1 µM) [nM]	relative IC50 (BT-474 [6]; 4-OH-tamoxifen in medium 1 µM) [nM]	drug sensitivity score (BT-474 Tam1 [7])	drug sensitivity score (ZR-75-1 Tam2 [8])	drug sensitivity score (BT-474 Tam2 [9])	drug sensitivity score (T-47D [10]; 4-OH-tamoxifen in medium 0 µM)	drug sensitivity score (T-47D [10]; 4-OH-tamoxifen in medium 1 µM)	drug sensitivity score (MCF-7 [11]; 4-OH-tamoxifen in medium 0 µM)	drug sensitivity score (MCF-7 [11]; 4-OH-tamoxifen in medium 1 µM)	drug sensitivity score (ZR-75-1 Tam1 [12])	drug sensitivity score (T-47D Tam2)	drug sensitivity score (MCF-7 Tam1 [13])	drug sensitivity score (T-47D Tam1 [14])	drug sensitivity score (ZR-75-1 [15]; 4-OH-tamoxifen in medium 0 µM)	drug sensitivity score (ZR-75-1 [15]; 4-OH-tamoxifen in medium 1 µM)	drug sensitivity score (BT-474 [16]; 4-OH-tamoxifen in medium 0 µM)	drug sensitivity score (BT-474 [16]; 4-OH-tamoxifen in medium 1 µM)	relative IC50 (ZR-75-1 Tam2 [17]) [nM]	relative IC50 (T-47D [2]; 4-OH-tamoxifen in medium 1 µM) [nM]	relative IC50 (ZR-75-1 Tam1 [18]) [nM]	relative IC50 (T-47D Tam1 [19]) [nM]	relative IC50 (ZR-75-1 [5]; 4-OH-tamoxifen in medium 0 µM) [nM]	relative IC50 (BT-474 Tam2 [20]) [nM]	relative IC50 (BT-474 [6]; 4-OH-tamoxifen in medium 0 µM) [nM]
O=C(Nc1ccncc1)C(=O)c1cn(Cc2ccc(Cl)cc2)c2ccccc12 [Indibulin]	> 10000	> 10000	32	189	> 10000	> 10000	474	0	0.106	3.18	0	0.395	8.82	6.28	0.0575	0.194	0	3.37	0.997	0	0.543	4.58	–	–	–	–	–	–	–
CO[C@@H]1[C@H](N(C)C(=O)c2ccccc2)C[C@H]2O[C@]1(C)n1c3ccccc3c3c4c(c5c6ccccc6n2c5c31)C(=O)NC4 [Midostaurin (PKC412)]	–	–	–	–	–	> 10000	305	0.189	0	1.88	1.37	3.14	0.329	0.519	0	1.85	1.28	3.03	0	0	3.45	7.09	> 10000	1810	> 10000	1490	> 10000	–	–
CNC(=O)c1cc(Oc2ccc(NC(=O)Nc3ccc(Cl)c(C(F)(F)F)c3)c(F)c2)ccn1 [Regorafenib (BAY 73-4506)]	3610	–	3540	3340	–	–	3940	4.57	2.33	5.3	1.1	0.365	2.49	1.46	0.695	0.22	0	9.09	0.232	0.299	1.48	3.22	1940	–	–	370	–	2430	3830
CO[C@H]1C[C@@H]2CC[C@@H](C)[C@@](O)(O2)C(=O)C(=O)N2CCCC[C@H]2C(=O)O[C@H]([C@H](C)C[C@@H]2CC[C@@H](OP(C)(C)=O)[C@H](OC)C2)CC(=O)[C@H](C)/C=C(\C)[C@@H](O)[C@@H](OC)C(=O)[C@H](C)C[C@H](C)/C=C/C=C/C=C/1C [Ridaforolimus]	–	5.63	1.03	3.28	–	1.76	> 100	2	10.1	2.86	4.69	1.51	12.2	5.81	5.15	2.97	0.718	5.75	8.67	4.9	6.16	0	1	–	3.27	2.06	1.23	–	–
Cn1cnc2c(F)c(Nc3ccc(Br)cc3Cl)c(C(=O)NOCCO)cc21 [Selumetinib  (AZD6244)]	–	> 10000	–	–	–	> 10000	–	0.393	0	0	0	0	0.0626	1.86	0	0.0086	0.168	8.55	0	0	0	2.57	> 10000	> 10000	> 10000	975	> 10000	> 10000	> 10000
CO[C@H]1C[C@@H]2CC[C@@H](C)[C@@](O)(O2)C(=O)C(=O)N2CCCC[C@H]2C(=O)O[C@H]([C@H](C)C[C@@H]2CC[C@@H](OC(=O)C(C)(CO)CO)[C@H](OC)C2)CC(=O)[C@H](C)/C=C(\C)[C@@H](O)[C@@H](OC)C(=O)[C@H](C)C[C@H](C)/C=C/C=C/C=C/1C [Temsirolimus]	–	–	0.493	2	–	–	> 100	1.35	8.51	0.262	3.79	0.468	10.3	6.12	4.48	2.09	0.189	5.45	8.12	4.72	0.668	0	1.08	–	2.67	2.04	0.917	–	–
O=C1NC(=O)[C@@H](c2cn3c4c(cccc24)CCC3)[C@@H]1c1c[nH]c2ccccc12 [Tivatinib (ARQ 197)]	–	364	–	–	> 1000	–	223	0.142	0	0	1.88	0	3.81	0.0182	0	0.839	0	0.827	0.524	0	1.2	3.08	> 1000	–	> 1000	–	–	–	401
CC[C@@H]1C(=O)N(C)c2cnc(Nc3ccc(C(=O)N[C@H]4CC[C@H](N5CCN(CC6CC6)CC5)CC4)cc3OC)nc2N1C(C)C [Volasertib (BI 6727)]	–	361	–	12.5	> 1000	–	–	0.654	0.29	0	1.16	2.85	2.8	7	1.07	2.13	0	2.19	0	0.706	1.47	7.11	–	–	–	–	> 1000	> 1000	–
